The values that follow are results of earlier work, collected in patent US11690800B2, “Non-irritating, non-blurring, photostable ophthalmic sunscreen composition” (A. EBBIE SOROUDI, M.D., M.S., A PROFESSIONAL MEDICAL …, priority 2014, dated 2023).

The conditions of series [1]: oil phase and water phase of a sunscreen.
For series [2] the following is noted: formulated into a dermatologic sunscreen.

SMILES strings stand for the structures.

As to `CC(C)(C)CC(C)(C)c1cc(Cc2cc(C(C)(C)CC(C)(C)C)cc(-n3nc4ccccc4n3)c2O)c(O)c(-n2nc3ccccc3n2)c1` [Bisoctrizole, 2,2′-methanediylbis[6-(2H-benzotriazol-2-yl)-4-(2,4,4-trimethylpentan-2-yl)phenol]], the “dissolution in oil or water phase” value in series [1] was “dissolves poorly in both”. Also, the skin penetration entry in series [2] was “minimal skin penetration”.
